pIC50: −log10 of the molar value.
How the values were obtained:
[1] = target: HIV-1 PR (Human immunodeficiency virus type 1 group M subtype B, UniProt P04585); test: HIV-protease inhibitory activity assay (FRET peptide substrate); format: biochemical; conditions: Test Example 1
Outline: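 Fluorescence recovery at ex 485/em 535 nm reports cleavage of a quenched FRET peptide (2 μmol/L final) by 0.83 ng enzyme over 60 minutes at room temperature. Buffer was NaAc pH 4.8 with NaCl, EDTA, DTT and Tween 20. IC50 values came from four-parameter logistic regression of % inhibition.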

[2] = Evaluation of total body clearance (CLtot), intravenous administration; format: in vivo, Sprague-Dawley (SD); conditions: rat (SD), intravenous administration 0.5-10 mg/kg; CLtot = dose/AUC
Procedure: Dose: Intravenous administration with designated doses was selected. (Doses were changed depending on compounds.) • 0.5-10 mg/kg (n=2-3) Preparation of dosing formulation: The dosing solution was prepared by dissolving in an adequate solvent. Administration method: The dosing solution was injected into the tail vein by a syringe with a needle Blood sampling: The blood was collected at the scheduled time and obtained the plasma. Plasma concentrations of the compound were measured by LC/MS/MS. Statistical analysis: Area under the plasma concentration-time curve (AUC) of the compound was calculated by pharmacokinetic analysis software, WinNonlin™ and CLtot was calculated by dividing the dose by AUC.

Row | Compound | pIC50 [1] | rat_CLt [2] [mL/min/kg]
1 | COc1ccc(S(=O)(=O)N(CC(C)C)CC(O)C(Cc2ccc(NCc3cc(O)ccc3-c3sc4c(c3C(=O)O)CC(C)(C)CC4)cc2)NC(=O)OC2COC3(C)OCCC23)cc1 (centres unmarked) [Compound I-561] | 8.87 | 4.48
2 | COc1ccc(S(=O)(=O)N(CC(C)C)CC(O)C(Cc2ccc(N(C)Cc3cc(N(C)C)ccc3-c3sc4c(c3C(=O)O)CC(C)(C)CC4)cc2)NC(=O)OC2COC3(C)OCCC23)cc1 (centres unmarked) [Compound I-538] | 8.54 | 0.598
3 | COc1ccc(S(=O)(=O)N(CC(C)C)CC(O)C(Cc2ccc(N(C)Cc3ccccc3C(=O)Nc3sc4c(c3C(=O)O)CC(C)(C)CC4)cc2)NC(=O)OC2COC3(C)OCCC23)cc1 (centres unmarked) [Compound I-407] | 8.42 | 0.31
4 | COc1ccc(S(=O)(=O)N(CC(C)C)CC(O)C(Cc2ccc(NCc3ccc(C(=O)Nc4sc5c(c4C(=O)O)CC(C)(C)CC5)cc3)cc2)NC(=O)OC2COC3(C)OCCC23)cc1 (centres unmarked) [Compound I-437] | 8.35 | –
5 | CC1(C)CCc2sc(-c3ccc(CN(CC(O)C(Cc4ccccc4)NC(=O)OC4COC5(C)OCCC45)S(=O)(=O)c4ccc5ncsc5c4)cc3)c(C(=O)O)c2C1 (centres unmarked) [Compound I-167] | 8.15 | –
6 | CC(C)CN(CC(O)C(Cc1ccc(OCc2cc(C(=O)O)cc(-c3ccc(F)cc3F)c2)cc1)NC(=O)OC1COC2(C)OCCC12)S(=O)(=O)c1ccc2ncsc2c1 (centres unmarked) [Compound I-60] | 8.80 | –
7 | COc1ccc(S(=O)(=O)N(CC(C)C)CC(O)C(Cc2ccc(OC3CCN(Cc4sc5c(c4C(=O)O)CC(C)(C)CC5)C3)cc2)NC(=O)OC2COC3(C)OCCC23)cc1 (centres unmarked) [Compound I-184] | 8.79 | –
8 | COc1ccc(S(=O)(=O)N(CC(C)C)CC(O)C(Cc2ccc(NCC3CC(C)(C)CC3c3sc4c(c3C(=O)O)CC(C)(C)CC4)cc2)NC(=O)OC2COC3OCCC23)cc1 (centres unmarked) [Compound I-883] | 8.67 | –
9 | COc1ccc(S(=O)(=O)N(CC(C)C)CC(O)C(Cc2ccc(N(C)C(=O)Nc3ccccc3-c3sc4c(c3C(=O)O)CC(C)(C)CC4)cc2)NC(=O)OC2COC3(C)OCCC23)cc1 (centres unmarked) [Compound I-269] | 8.47 | –
10 | COc1ccc(S(=O)(=O)N(CC(C)C)CC(O)C(Cc2ccc(NCc3cc(Oc4cccc5cccnc45)ccc3-c3sc4c(c3C(=O)O)CC(C)(C)CC4)cc2)NC(=O)OC2COC3(C)OCCC23)cc1 (centres unmarked) [Compound I-684] | 8.55 | –
11 | COc1ccc(S(=O)(=O)N(CC2CCCC2)CC(O)C(Cc2ccc(NCc3cc(C(F)(F)F)ccc3-c3sc4c(c3C(=O)O)CC(C)(C)CC4)cc2)NC(=O)OC2COC3OCCC23)cc1 (centres unmarked) [Compound I-870] | 8.03 | –
12 | CC1(C)CCc2sc(-c3cccnc3COc3ccc(CC(NC(=O)OC4COC5(C)OCCC45)C(O)CN(CC4CCCC4)S(=O)(=O)c4ccc5c(c4)CCO5)cc3)c(C(=O)O)c2C1 (centres unmarked) [Compound I-189] | 8.60 | –
13 | COc1ccc(S(=O)(=O)N(CC2CCCC2)CC(O)C(Cc2ccc(OC3CCN(C(=O)c4ccc(Cl)cc4-c4sc5c(c4C(=O)O)CC(C)(C)CC5)C3)cc2)NC(=O)OC2COC3(C)OCCC23)cc1 (centres unmarked) [Compound I-210] | 8.67 | –
14 | COc1ccc(S(=O)(=O)N(CC(C)C)CC(O)C(Cc2ccc(-c3cc(C(=O)O)cs3)cc2)NC(=O)OC2COC3(C)OCCC23)cc1 (centres unmarked) [Compound I-109] | 8.92 | –
15 | COc1ccc(S(=O)(=O)N(CC(C)C)CC(O)C(Cc2ccc(N(CCC(F)(F)F)Cc3ccccc3-c3sc4c(c3C(=O)O)CC(C)(C)CC4)cc2)NC(=O)OC2COC3(C)OCCC23)cc1 (centres unmarked) [Compound I-430] | 7.76 | –
16 | COc1ccc(S(=O)(=O)N(CC(C)C)CC(O)C(Cc2ccc(OCc3ccccc3-n3nc(C(=O)O)c4c3CCC(C(F)(F)F)C4)cc2)NC(=O)OC2COC3(C)OCCC23)cc1 (centres unmarked) [Compound I-142] | 8.76 | –
17 | CC(C)CN(CC(O)C(Cc1ccccc1)NC(=O)OC1COC2OCCC12)S(=O)(=O)c1ccc(NCc2sc3c(c2C(=O)O)CC(C)(C)CC3)cc1 (centres unmarked) [Compound I-816] | 8.24 | –
18 | COc1ccc(S(=O)(=O)N(CC(C)C)CC(O)C(Cc2ccc(COc3ccc4c(c3C(=O)O)CC(C)(C)CC4)cc2)NC(=O)OC2COC3OCCC23)cc1 (centres unmarked) [Compound I-811] | 9.09 | –
19 | COc1ccc(S(=O)(=O)N(CC(C)C)CC(O)C(Cc2ccc(OC3CC4CCC(C3)N4c3ccc(C#N)cc3-c3sc4c(c3C(=O)O)CC(C)(C)CC4)cc2)NC(=O)OC2COC3(C)OCCC23)cc1 (centres unmarked) [Compound I-324] | 7.71 | –
20 | COc1ccc(S(=O)(=O)N(CC(C)C)CC(O)C(Cc2ccc(Nc3ncc(-c4sc5c(c4C(=O)O)CC(C)(C)CC5)cn3)cc2)NC(=O)OC2COC3(C)OCCC23)cc1 (centres unmarked) [Compound I-433] | 8.60 | –
21 | COc1ccc(S(=O)(=O)N(CC(C)C)CC(O)C(Cc2ccc(NCc3cc(C(F)(F)F)ccc3-n3nc(C(=O)O)c4c3CCC(C)(C)C4)cc2)NC(=O)OC2COC3(C)OCCC23)cc1 (centres unmarked) [Compound I-446] | 8.67 | –

Row | Compound | pIC50 [1] | rat_CLt [2] [mL/min/kg]
22 | COc1ccc(S(=O)(=O)N(CC(C)C)CC(O)C(Cc2ccc(NCc3ccccc3C(=O)Nc3sc4c(c3C(=O)O)CC(C)(C)CC4)cc2)NC(=O)OC2COC3(C)OCCC23O)cc1 (centres unmarked) [Compound I-891] | 8.54 | –
23 | CC(C)CN(C[C@@H](O)[C@H](Cc1ccc(OCc2ccccc2-c2sc3c(c2C(=O)O)CC(C)(C)CC3)cc1)NC(=O)O[C@H]1CO[C@@]2(C)OCC[C@@H]12)S(=O)(=O)c1ccc(N)c(CCC(N)=O)c1 [Compound I-17] | 8.91 | –
24 | COc1ccc(S(=O)(=O)N(CC(C)C)CC(O)C(Cc2ccc(N3CCC(Cc4ccccc4-c4sc5c(c4C(=O)O)CC(C)(C)CC5)C3)cc2)NC(=O)OC2COC3(C)OCCC23)cc1 (centres unmarked) [Compound I-667] | 8.10 | –
25 | COc1ccc(S(=O)(=O)N(CC(C)C)CC(O)C(Cc2ccc(NCc3c(F)cccc3C(=O)Nc3sc4c(c3C(=O)O)CC(C)(C)CC4)cc2)NC(=O)OC2COC3(C)OCCC23)cc1 (centres unmarked) [Compound I-748] | 8.62 | –
26 | COc1ccc(S(=O)(=O)N(CC(C)C)CC(O)C(Cc2ccc(N3CCc4nc(-c5sc6c(c5C(=O)O)CC(C)(C)CC6)sc4C3)cc2)NC(=O)OC2COC3(C)OCCC23)cc1 (centres unmarked) [Compound I-225] | 8.64 | –
27 | COc1ccc(S(=O)(=O)N(CC(C)C)CC(O)C(Cc2ccc(N(C)CC3COCCC3c3sc4c(c3C(=O)O)CC(C)(C)CC4)cc2)NC(=O)OC2COC3(C)OCCC23)cc1 (centres unmarked) [Compound I-401] | 8.75 | –
28 | COc1ccc(S(=O)(=O)N(CC(C)C)CC(O)C(Cc2ccc(OCc3ccccc3-c3ccc4c(O)c(-c5ccc(F)cc5)c(=O)n(-c5ccccc5)c4c3)cc2)NC(=O)OC2COC3(C)OCCC23)cc1 (centres unmarked) [Compound I-75] | 8.92 | –
29 | COc1ccc(S(=O)(=O)N(CC(C)C)CC(O)C(Cc2ccc(OCc3ccccc3-n3nc4c(c3C(=O)O)CC(c3ccccc3)CC4)cc2)NC(=O)OC2COC3(C)OCCC23)cc1 (centres unmarked) [Compound I-144] | 9.10 | –
30 | COc1ccc(S(=O)(=O)N(CC(C)C)CC(O)C(Cc2ccc(NCc3cc(C(=O)Nc4sc5c(c4C(=O)O)CC(C)(C)CC5)n(C)c3)cc2)NC(=O)OC2COC3(C)OCCC23)cc1 (centres unmarked) [Compound I-445] | 8.56 | –
31 | COc1ccc(S(=O)(=O)N(CC(C)C)CC(O)C(Cc2ccc(NC(C)c3ccccc3-c3sc4c(c3C(=O)O)CC(C)(C)CC4)cc2)NC(=O)OC2COC3(C)OCCC23)cc1 (centres unmarked) [Compound I-383] | 8.19 | –
32 | COc1ccc(S(=O)(=O)N(CC(C)C)CC(O)C(Cc2ccc(N3CCC(C(=O)N(C)c4sc5c(c4C(=O)O)CC(C)(C)CC5)C3)cc2)NC(=O)OC2COC3(C)OCCC23)cc1 (centres unmarked) [Compound I-646] | 8.53 | –
33 | COc1ccc(S(=O)(=O)N(CC(C)C)CC(O)C(Cc2ccc(NCC3=C(c4sc5c(c4C(=O)O)CC(C)(C)CC5)CCC(F)(F)C3)cc2)NC(=O)OC2COC3(C)OCCC23)cc1 (centres unmarked) [Compound I-705] | 8.31 | –
34 | COc1ccc(S(=O)(=O)N(CC(C)C)CC(O)C(Cc2ccc(NC3CCCc4c(-c5sc6c(c5C(=O)O)CC(C)(C)CC6)cccc43)cc2)NC(=O)OC2COC3(C)OCCC23)cc1 (centres unmarked) [Compound I-752] | 7.88 | –
35 | COc1ccc(S(=O)(=O)N(CC(C)C)CC(O)C(Cc2ccc(N(CCCC(F)(F)F)Cc3ccccc3-c3sc4c(c3C(=O)O)CC(C)(C)CC4)cc2)NC(=O)OC2COC3(C)OCCC23)cc1 (centres unmarked) [Compound I-427] | 7.98 | –
36 | COc1ccc(S(=O)(=O)N(CC(C)C)CC(O)C(Cc2ccc(NCc3ccc(CCC(=O)Nc4sc5c(c4C(=O)O)CC(C)(C)CC5)cc3)cc2)NC(=O)OC2COC3(C)OCCC23)cc1 (centres unmarked) [Compound I-439] | 8.46 | –
37 | COc1ccc(S(=O)(=O)N(CC2CCCC2)CC(O)C(Cc2ccc(NCc3ccccc3C(=O)Nc3sc4c(c3C(=O)O)CC(C)(C)CC4)cc2)NC(=O)OC2COC3(C)OCCC23O)cc1 (centres unmarked) [Compound I-892] | 8.39 | –
38 | COc1ccc(S(=O)(=O)N(CC(C)C)CC(O)C(Cc2ccc(N(C)C3CCN(c4ccccc4-c4sc5c(c4C(=O)O)CC(C)(C)CC5)C3)cc2)NC(=O)OC2COC3(C)OCCC23)cc1 (centres unmarked) [Compound I-239] | 8.56 | –
39 | COc1ccc(S(=O)(=O)N(CC(C)C)CC(O)C(Cc2ccc(C(=O)NCc3ccccc3-c3sc4c(c3C(=O)O)CC(C)(C)CC4)cc2)NC(=O)OC2COC3(C)OCCC23)cc1 (centres unmarked) [Compound I-263] | 8.47 | –
40 | COc1ccc(S(=O)(=O)N(CC(C)C)CC(O)C(Cc2ccc(-c3ccc(-c4sc5c(c4C(=O)O)CC(C)(C)CC5)cc3)cc2)NC(=O)OC2COC3(C)OCCC23)cc1 (centres unmarked) [Compound I-183] | 8.62 | –
41 | COc1ccc(S(=O)(=O)N(CC(C)C)CC(O)C(Cc2ccc(NCc3c(-c4sc5c(c4C(=O)O)CC(C)(C)CC5)cccc3[N+](=O)[O-])cc2)NC(=O)OC2COC3(C)OCCC23)cc1 (centres unmarked) [Compound I-546] | 8.73 | –
